In US11543404B2, “Nerve cell device and method for evaluating neural activity” (Stem Cell & Device Laboratory, Inc., priority 2017, dated 2023):

Experiments:
[1] = system: 253G1 hiPS cell-derived neurons; experiment: MEA measurement of drug response (number of spikes) of 253G1 hiPS cell-derived neurons; format: cell-based, human; details: 4-AP final concentration 100 μM
Experimental: iPS cell-derived neurons (253G1 hiPS cell-derived neuron or XCL-1 NEURONS (XCell Science, catalog number XN-001-1V)) were seeded on the oriented PLGA fiber sheet as a cell scaffold at 13×10^5 cells/cm^2. 253G1 hiPS cell-derived neurons were cultured in N2B27 medium with or without 20% ACM, and the XCL-1 NEURONS are cultured in BrainPhys (registered trademark) Neuronal Medium (05792, STEMCELL TECHNOLOGIES) with or without 20% ACM in an incubator at 5% CO2 and 37° C. for 4 or 6 weeks. The fiber sheet was placed on an MEA probe (MED64 system, Alpha MED Scientific Inc.), and made the cells contact with the electrodes of MEA probe to measure neural activity (spikes). As a control, neurons were similarly seeded directly on a probe (electrodes) based on a conventional method, and cultured in an incubator at 5% CO2 and 37° C. for 4 or 6 weeks. The obtained results were compared with those given by a conventional method (direct seeding to a probe). A larger number of spikes were detected in 253G1 hiPS cell-derived neurons on the fiber sheet at 4-week culture (FIG. 7a). […] In the measurement system, 4-aminopyridine (4-AP), known to have a function of inhibiting various potassium channels in neurons and maintaining neuronal action potential, was added to the neurons cultured for 4 weeks at a final concentration of 100 μM, and then the spikes were measured. As a result, the number of spikes was increased both in the control group and in the fiber sheet group by the addition of 4-aminopyridine, and appropriate drug response was also confirmed (FIG. 7a).

[2] = system: iPS cell-derived neurons XCL-1 NEURONS; experiment: MEA measurement of drug response (spikes, bursts, synchronous bursts) of XCL-1 NEURONS on oriented PLGA fiber sheet; format: cell-based, human; details: 4-AP final concentration 100 μM
Experimental: iPS cell-derived neurons (253G1 hiPS cell-derived neuron or XCL-1 NEURONS (XCell Science, catalog number XN-001-1V)) were seeded on the oriented PLGA fiber sheet as a cell scaffold at 13×10^5 cells/cm^2. 253G1 hiPS cell-derived neurons were cultured in N2B27 medium with or without 20% ACM, and the XCL-1 NEURONS are cultured in BrainPhys (registered trademark) Neuronal Medium (05792, STEMCELL TECHNOLOGIES) with or without 20% ACM in an incubator at 5% CO2 and 37° C. for 4 or 6 weeks. The fiber sheet was placed on an MEA probe (MED64 system, Alpha MED Scientific Inc.), and made the cells contact with the electrodes of MEA probe to measure neural activity (spikes). As a control, neurons were similarly seeded directly on a probe (electrodes) based on a conventional method, and cultured in an incubator at 5% CO2 and 37° C. for 4 or 6 weeks. The obtained results were compared with those given by a conventional method (direct seeding to a probe). A larger number of spikes were detected in 253G1 hiPS cell-derived neurons on the fiber sheet at 4-week culture (FIG. 7a). […] In the measurement system, 4-aminopyridine (4-AP), known to have a function of inhibiting various potassium channels in neurons and maintaining neuronal action potential, was added to the neurons cultured for 4 weeks at a final concentration of 100 μM, and then the spikes were measured. As a result, the number of spikes was increased both in the control group and in the fiber sheet group by the addition of 4-aminopyridine, and appropriate drug response was also confirmed (FIG. 7a). […] The cells were cultured in BrainPhys (registered trademark) Neuronal Medium (05792, STEMCELL TECHNOLOGIES) containing 20% ACM in an incubator at 5% CO2 and 37° C. for 2, 4, and 6 weeks. The obtained cell sheet (nerve cell device) was placed on an MEA probe (MED64 system, Alpha MED Scientific Inc.) and made the cells contact with the electrodes of MEA probe to measure neural activity (spikes and bursts). In the measurement system, 4-aminopyridine (4-AP), known to maintain a neural action potential was added at a final concentration of 100 μM to examine the drug response of neurons. MED 64 Burstscope (Alpha MED Scientific Inc.) was used for analyzing neural activity. About the cell sheet obtained by culturing for 4 weeks, the result of analyzing the number of spikes is shown in FIG. 8a, and the result of analyzing the number of synchronous bursts is shown in FIG. 8b. […] Furthermore, the result of analyzing neural activity by raster plots for a cell sheet obtained by culturing for 6 weeks is shown in FIG. 8c.

[3] = seeded at 24×10^5 cells/cm^2 on oriented PLGA fiber sheet, 20% ACM, cultured 4 weeks

SMILES: Nc1ccncc1 [4-aminopyridine]
- increase in the number of spikes ([1]; control group cultured directly on the MEA probe, 4 weeks): 156%
- increase in the number of spikes ([1]; fiber sheet group cultured in medium with 20% ACM, 4 weeks): 194%
- increase in the number of spikes ([1]; neurons on oriented PLGA fiber sheet (fiber sheet group), cultured 4 weeks): 167%
- increase in the number of spikes [2, 3]: 499%
- increase in the number of synchronous bursts [2, 3]: 375%
- number of spikes and synchronous bursts (raster plots) ([2]; seeded at 24×10^5 cells/cm^2 on oriented PLGA fiber sheet, 20% ACM, cultured 6 weeks): remarkable increase
- increase in the number of bursts ([2]; seeded on fiber sheet at 12×10^5 cells/cm^2, cultured 6 weeks in medium with ACM): 2.6 fold
